Test results published in paper PMC4897634, “Design of an α-helical antimicrobial peptide with improved cell-selective and potent anti-biofilm activity” (Scientific Reports, 2016).
In brackets after ≈: the same amount, converted by molar mass. Several values for one entry are separate records, joined by “and”; a condition that tells them apart may be missing. Equal values may be shown once. Where no end group is shown, it is not given here.

Key:
[1] = test system: Klebsiella pneumonia (1.1736); assay: Antimicrobial activity, broth microdilution MIC; type: cell-based; settings: modified CLSI broth microdilution, LB medium, 1 × 10^6 CFU/ml, 37 °C, 18 to 20 hours, absorbance 600 nm
Description: (§1) The antibacterial activities of the peptides against three Gram-negative bacteria and three Gram-positive bacteria strains were measured using a modified version of the Clinical Laboratory and Standards Institute (CLSI) broth microdilution method as described previously. Three Gram-negative bacteria, Escherichia coli (1.8732), Pseudomonas aeruginosa (1.2421), and Klebsiella pneumonia (1.1736), and three Gram-positive bacteria, Staphylococcus aureus (1.8721), Staphylococcus epidermidis (1.4260), and Bacillus subtilis (1.3376), were purchased from the China General Microbiological Culture Collection Centre (CGMCC). Briefly, bacteria were grown in liquid LB medium (tryptone, 10 g/L, yeast extract, 5 g/L and NaCl, 10 g/L) at 37 °C to mid-log phase, and the bacteria were diluted to 1 × 10^6 colony-forming units (CFU)/ml. The peptides were serially diluted with phosphate-buffered saline (PBS), and 50 μl diluted peptides were added to 50 μl of the bacterial suspension in 96-well plate (Corning Inc., Lowell, MA, USA). After incubation at 37 °C for 18 to 20 hours, the absorbance of each well was recorded using a multi-well microplate reader (SpectraMax M5; Molecular Devices, Sunnyvale, CA, USA) at 600 nm. The lowest concentration at which the peptide inhibited complete growth of the bacteria was taken as the minimal inhibitory concentration (MIC).

human erythrocytes = assay: Haemolytic activity; type: cell-based; settings: 37 °C, 30 min; for MHC, minimum haemolytic concentration: concentration causing 10% haemolysis of hRBC, 200 μM used when no haemolysis detectable at 100 μM; for haemolytic activity: 25 μM peptide; for haemolytic activity / haemolysis rate: human erythrocytes, relative to 0.1% Triton X-100
Description: Haemolytic activity of the peptides was assayed by a standard procedure with slight modification. Fresh human erythrocytes were washed three times and resuspended at 1.25% haematocrit in PBS. Forty microlitres PBS-diluted peptide solution was added to a V-bottom 96-well plate (Corning Inc., Lowell, MA, USA), and 160 μl of erythrocytes was added. After incubation at 37 °C for 30 min, the samples were centrifuged, and the absorbance of the supernatant was measured at 450 nm using a multi-well microplate reader (SpectraMax M5; Molecular Devices, Sunnyvale, CA, USA) and compared with the 100% haemolysis caused by 0.1% Triton X-100. The percentage of haemolysis was calculated according to the equation (2): […]

[2] = test system: Staphylococcus epidermidis (1.4260); assay: Antimicrobial activity, broth microdilution MIC; type: cell-based; settings: modified CLSI broth microdilution, LB medium, 1 × 10^6 CFU/ml, 37 °C, 18 to 20 hours, absorbance 600 nm
Description: as §1

[3] = test system: Staphylococcus aureus (1.8721); assay: Antimicrobial activity, broth microdilution MIC; type: cell-based; settings: modified CLSI broth microdilution, LB medium, 1 × 10^6 CFU/ml, 37 °C, 18 to 20 hours, absorbance 600 nm
Description: as §1

[4] = test system: Escherichia coli (1.8732); assay: Antimicrobial activity, broth microdilution MIC; type: cell-based; settings: modified CLSI broth microdilution, LB medium, 1 × 10^6 CFU/ml, 37 °C, 18 to 20 hours, absorbance 600 nm
Description: as §1

[5] = test system: Bacillus subtilis (1.3376); assay: Antimicrobial activity, broth microdilution MIC; type: cell-based; settings: modified CLSI broth microdilution, LB medium, 1 × 10^6 CFU/ml, 37 °C, 18 to 20 hours, absorbance 600 nm
Description: as §1

[6] = test system: Pseudomonas aeruginosa (1.2421); assay: Antimicrobial activity, broth microdilution MIC; type: cell-based; settings: modified CLSI broth microdilution, LB medium, 1 × 10^6 CFU/ml, 37 °C, 18 to 20 hours, absorbance 600 nm
Description: as §1

Gram-positive bacteria = type: cell-based, S. aureus, S. epidermidis, B. subtilis; settings: for TI, therapeutic index: ratio of MHC to GM
Description: (§2) The antimicrobial activities of the peptides, indicated by the minimum inhibitory concentrations (MIC), were determined against a range of Gram-negative (Table 3) and Gram-positive bacterial strains (Table 4). The geometric mean of MIC values (GM) from the three strains was calculated to provide an overall evaluation of antimicrobial activity.
(§3) The therapeutic index (TI) is defined as the ratio of the minimum haemolytic concentration (MHC) of peptides to the GM of peptides, and this value was used to evaluate cell selectivity of peptides towards the negatively charged region of bacterial cell membranes over the zwitterionic mammalian cell membranes.
as §1

[7] = test system: L929 mouse fibroblast cells; assay: Cytotoxicity, MTT assay; type: cell-based; settings: 50 μM peptide, 1 hour
Description: The toxicity of the peptides against L929 mouse fibroblast cells was assessed by a standard MTT assay. L929 mouse fibroblast cells from ATCC (Manassas, VA, USA) were maintained in our laboratory. L929 cells were cultured in RPMI 1640 supplemented with 10% (v/v) FBS, 2 mM L-glutamine, 100 U/ml penicillin and […] streptomycin and maintained in a humidified incubator with 5% CO2 at 37 °C. L929 cells (5 × 10^3cells/well) were seeded in 96-well plates (Corning Inc., Lowell, MA, USA) and incubated overnight. Diluted peptides were added to L929 cells and incubated for 1 hour. Then, 20 μl of MTT (5 mg/ml) solution was added and incubated for 4 hours. The medium was removed, and 150 μl of DMSO was added to each well to dissolve the formazan crystals. The absorbance was measured at 490 nm on a microplate reader (SpectraMax M5; Molecular Devices, Sunnyvale, CA, USA). Cell viabilities were calculated by using the equation (3): […]

Gram-negative bacteria = type: cell-based, E. coli, P. aeruginosa, K. pneumoniae; settings: for TI, therapeutic index: ratio of MHC to GM
Description: as §2, §3, §1

Row | Compound | MIC K. pneumoniae [1] [µM] | MHC, minimum haemolytic concentration (human erythrocytes) | MIC S. epidermidis [2] | MIC S. aureus [3] [µM] | MIC E. coli [4] [µM] | MIC B. subtilis [5] | MIC P. aeruginosa [6] [µM] | TI, therapeutic index (Gram-positive bacteria; Gram-positive bacteria) | viability of treated L929 cells [7] [%] | TI, therapeutic index (Gram-negative bacteria; Gram-negative bacteria) | haemolytic activity (human erythrocytes) [%] | haemolysis rate (human erythrocytes; 100 μM peptide) [%] | haemolysis rate (human erythrocytes; 3.13 μM peptide) [%] | GM, geometric mean of MIC (Gram-positive bacteria; Gram-positive strains S. aureus, S. epidermidis, B. subtilis) [µM] | Fold (Gram-positive bacteria; Table S3, TI compared with melittin, Gram-positive bacteria) | GM, geometric mean of MIC (Gram-negative bacteria; Gram-negative strains E. coli, P. aeruginosa, K. pneumoniae) [µM] | Fold (Gram-negative bacteria; Table S2, TI compared with melittin, Gram-negative bacteria)
1 | CC[C@H](C)[C@H](NC(=O)CN)C(=O)NCC(=O)N[C@@H](C)C(=O)N[C@H](C(=O)N[C@@H](CC(C)C)C(=O)N[C@@H](CCCCN)C(=O)N[C@H](C(=O)N[C@@H](CC(C)C)C(=O)N[C@H](C(=O)N[C@H](C(=O)NCC(=O)N[C@@H](CC(C)C)C(=O)N1CCC[C@H]1C(=O)N[C@@H](C)C(=O)N[C@@H](CC(C)C)C(=O)N[C@H](C(=O)N[C@@H](CO)C(=O)N[C@@H](Cc1c[nH]c2ccccc12)C(=O)N[C@H](C(=O)N[C@@H](CCCCN)C(=O)N[C@@H](CCCNC(=N)N)C(=O)N[C@@H](CCCCN)C(=O)N[C@@H](CCCNC(=N)N)C(=O)N[C@@H](CCC(N)=O)C(=O)N[C@@H](CCC(N)=O)C(N)=O)[C@@H](C)CC)[C@@H](C)CC)[C@@H](C)O)[C@@H](C)O)C(C)C)C(C)C [Melittin, reference compound] | 6.25 (≈ 17.8 µg/mL) | 0.78 µM |  |  |  |  |  |  |  |  |  |  |  |  |  |  | 
2 | AIGSILGALAKGLPTLKSWIKNR-NH2 [A(I17K)] | 50 | 50 µM | 12.5 µM | 50 | 25 | 6.25 µM | 25 | 3.17 | 7.9 | 1.59 | 6.4 | 33 |  |  |  |  | 
3 | AIGSILGALAKGLPTLRSWIKNR-NH2 [A(I17R)] | 25 | 25 µM | 6.25 µM | 25 | 12.5 | 3.13 µM | 12.5 | 3.17 | 6.6 | 1.59 |  | 74 |  |  |  |  | 
4 | AIGSILGRLAKGLPTLISWIKNR-NH2 [A(A8R)] | 12.5 | 3.12 µM and 3.13 µM | 3.13 µM | 3.13 | 12.5 | 3.13 µM | 12.5 | 1 |  | 0.25 | 98.3 |  | 12.9 |  |  |  | 
5 | AIGSILGRLAKGLPTLKSWIKNR-NH2 [A(A8R, I17K)] | 25 | 100 µM | 6.25 µM | 100 | 25 | 12.5 µM | 25 | 5.04 | 21.1 | 4 |  |  |  |  |  |  | 
6 | M(G1R, V8R, I17R): melittin analogue with residues at position 1, 8 and 17 replaced by positively charged residues (RIGAVLKRLTTGLPALRSWIKRKRQQ; not fully specified; ends and bridges not checked; UniProt P01501 44-69, looked up, variant G1R V8R I17R) | 12.5 | 200 µM | 6.25 µM | 100 | 25 | 3.125 µM | 25 | 16 |  | 10.1 |  |  |  | 12.5 | 64 | 19.8 | 101
7 | RIGSILGALAKGLPTLISWIKNR-NH2 [A(A1R)] | 12.5 | 3.12 µM and 3.13 µM | 3.13 µM | 6.25 | 12.5 | 6.25 µM | 6.25 | 0.63 |  | 0.31 |  |  | 25.9 |  |  |  | 
8 | RIGSILGRLAKGLPTLISWIKNR-NH2 [A(A1R, A8R)] | 6.25 | 6.25 µM | 3.13 µM | 12.5 | 6.25 | 6.25 µM | 6.25 | 1 |  | 1 |  |  |  |  |  |  | 
9 | RIGSILGRLAKGLPTLRSWIKNR-NH2 [A(A1R, A8R, I17R)] | 12.5 | 100 µM | 3.13 µM | 100 | 12.5 | 12.5 µM | 12.5 | 6.35 |  | 8 |  |  |  |  |  |  | 
10 | RIGVLLARLPKLFSLFKLMGKKV-NH2 [RV-23, reference compound] | 6.25 | 6.25 µM | 3.125 µM and 3.13 µM | 12.5 | 6.25 | 3.125 µM and 3.13 µM | 6.25 | 1.26 |  | 1 |  |  |  |  |  |  | 
